{"source": "patent US3966715A", "about": "“Herbicidal agents” (Bayer Aktiengesellschaft, priority 1966, dated 1976)", "key": {"Echinochloa": {"tested_on": "Echinochloa", "assay": "Pre-emergence test, Echinochloa", "type": "in vivo", "conditions": "three weeks", "protocol": "(§1) Solvent: 5 parts by weight acetone\n(§2) 1 part by weight benzyloxypolyglycol ether\n(§3) To produce a suitable preparation of the particular active compound, 1 part by weight of such active compound is mixed with the stated amount of solvent, the stated amount of emulsifier is then added and the resulting concentrate is thereafter diluted with water to the desired final concentration.\n(§4) Seeds of the test plants are sown in normal soil and, after 24 hours, watered with the preparation of the given active compound. It is expedient to keep constant the amount of water per unit area. The concentration of the particular active compound in the preparation is of no importance, only the amount of active compound applied per unit area being decisive. After three weeks, the degree of damage to the test plants is determined and characterized by the values 0-5, which have the following meaning:\n(§5) The procedure of Example 1 is repeated, and the particular active compounds tested, the amounts applied, and the results obtained can be seen from the following Table 1D: […]"}, "Galinsoga": {"tested_on": "Galinsoga", "assay": "Post-emergence test, Galinsoga", "type": "in vivo", "conditions": "three weeks", "protocol": "as §1, §2, §3\n(§6) Test plants which have a height of about 5--15 cm. are sprayed with the preparation of the given active compound until just dew moist. After three weeks, the degree of damage to the plants is determined and characterized by the values 0-5, which have the following meaning:\n(§7) The procedure of Example 2 is repeated, and the particular active compounds tested, and amounts applied, and the results obtained can be seen from the following Table 2E: […]"}, "Oats [1]": {"tested_on": "Oats", "assay": "Post-emergence test, oats", "type": "in vivo", "conditions": "three weeks", "protocol": "as §1, §2, §3, §6, §7"}, "dwarf beans": {"tested_on": "dwarf beans", "assay": "Defoliant test", "type": "in vivo", "conditions": "0.05% active compound", "protocol": "There is prepared, in the same manner as described in Example 1, an active compound preparation which contains 0.05% of\n(1a\") 3-methylthio-4-amino-6-phenyl-1,2,4-triazine-5-one.\nA field of dwarf beans is sprayed with this preparation of the active compound so that the dwarf beans themselves are only just dripping wet."}, "Sinapis [2]": {"tested_on": "Sinapis", "assay": "Post-emergence test, Sinapis", "type": "in vivo", "conditions": "10 Kg/hectare, three weeks", "protocol": "as §1, §2, §3, §6, §7"}, "Chenopodium": {"tested_on": "Chenopodium", "assay": "Post-emergence test, Chenopodium", "type": "in vivo", "conditions": "10 Kg/hectare, three weeks", "protocol": "as §1, §2, §3, §6, §7"}, "Oats [3]": {"tested_on": "Oats", "assay": "Pre-emergence test, oats", "type": "in vivo", "conditions": "2.5 kg/hectare, three weeks", "protocol": "as §1, §2, §3, §4, §5"}, "Sinapis [4]": {"tested_on": "Sinapis", "assay": "Pre-emergence test, Sinapis", "type": "in vivo", "conditions": "5 kg/hectare, three weeks", "protocol": "as §1, §2, §3, §4, §5"}, "Wheat [5]": {"tested_on": "Wheat", "assay": "Post-emergence test, wheat", "type": "in vivo", "conditions": "2.4 Kg/hectare, three weeks", "protocol": "as §1, §2, §3, §6, §7"}, "Wheat [6]": {"tested_on": "Wheat", "assay": "Pre-emergence test, wheat", "type": "in vivo", "conditions": "1.25 kg/hectare, three weeks", "protocol": "as §1, §2, §3, §4, §5"}, "test plants": {"tested_on": "test plants", "assay": "Post-emergence test, overall", "type": "in vivo", "protocol": "as §1, §2, §3, §6, §7"}, "soybeans": {"tested_on": "soybeans", "assay": "Pre-emergence selectivity, soybeans", "type": "in vivo"}, "Alternaria": {"tested_on": "Alternaria", "assay": "Fungicidal activity", "type": "in vivo", "conditions": "particularly against Alternaria"}, "nematoeds": {"tested_on": "nematoeds", "assay": "Nematocidal activity on the soil", "type": "in vivo", "conditions": "1 Kg/hectare"}, "cotton and tomatoes": {"tested_on": "cotton and tomatoes", "assay": "Pre-emergence selectivity, cotton and tomatoes", "type": "in vivo", "conditions": "pre-emergence application"}, "[7]": {"tested_on": "corn, potatoes, millet and peanuts", "assay": "Use in growing corn, potatoes, millet and peanuts", "type": "in vivo", "conditions": "0.3-2 kg/hectare"}, "plants and weeds": {"tested_on": "plants and weeds", "assay": "General herbicidal activity", "type": "in vivo", "conditions": "compared with compounds 221, 222, 223"}, "Oral toxicity in rats": {"assay": "Oral toxicity in rats", "conditions": "rat, in vivo, po"}, "rats": {"tested_on": "rats", "assay": "Oral toxicity in rats", "conditions": "in words"}}, "data": [{"smiles": "CCNc1nc(Cl)nc(NCC)n1", "note": "[A, 2,6-di-(ethylamino)-4-chloro-1,3,5-triazine, reference compound]", "values": [{"measurement": "degree of damage, Echinochloa", "setting": "Echinochloa; 5 kg/hectare", "value": "3-4"}, {"measurement": "degree of damage, Galinsoga", "setting": "Galinsoga; 0.1 % active compound", "value": "4-5"}]}, {"smiles": "CSc1nnc(-c2ccccc2)c(=O)n1N", "note": "[Compound 1a, 3-methylthio-4-amino-6-phenyl-1,2,4-triazine-5-one]", "values": [{"measurement": "degree of damage, Echinochloa", "setting": "Echinochloa; 1.25 kg/hectare", "value": "4-5"}, {"measurement": "degree of damage, Oats", "setting": "Oats [1]; 1.2 Kg/hectare", "value": "4-5"}, {"measurement": "degree of damage, Oats", "setting": "Oats [1]; 2.4 Kg/hectare", "value": "4-5"}, {"measurement": "harvesting of the beans", "setting": "dwarf beans", "value": "quite considerably facilitated"}, {"measurement": "drying up of leaves", "setting": "dwarf beans; after 8 days", "value": "completely dried up"}]}, {"smiles": "Nn1c(N2CCCCC2)nnc(-c2ccccc2)c1=O", "note": "[Compound 25, 3-piperidino-4-amino-6-phenyl-1,2,4-triazine-5-one]", "values": [{"measurement": "degree of damage, Sinapis", "setting": "Sinapis [2]", "value": "4-5"}, {"measurement": "degree of damage, Chenopodium", "setting": "Chenopodium", "value": "3-4"}]}, {"smiles": "CCNc1nnc(C(C)C)c(=O)n1N", "note": "[Compound 177, 3-ethylamino-4-amino-6-isopropyl-1,2,4-triazine-5-one]", "values": [{"measurement": "degree of damage, Oats", "setting": "Oats [3]", "value": "4-5"}, {"measurement": "degree of damage, Sinapis", "setting": "Sinapis [4]", "value": "4-5"}, {"measurement": "degree of damage, Oats", "setting": "Oats [1]; 2.4 Kg/hectare", "value": "4-5"}, {"measurement": "degree of damage, Wheat", "setting": "Wheat [5]", "value": "4-5"}, {"measurement": "degree of damage, Galinsoga", "setting": "Galinsoga; 2.4 Kg/hectare", "value": "4-5"}]}, {"smiles": "CSc1nnc(C(C)(C)C)c(=O)n1N=C1CCCCC1", "note": "[Compound 221, 3-methylthio-4-(cyclohexylidene-amino)-6-tert.-butyl-1,2,4-triazine-5-one]", "values": [{"measurement": "degree of damage, Wheat", "setting": "Wheat [6]", "value": "4-5"}, {"measurement": "degree of damage, Wheat", "setting": "Wheat [5]", "value": "4-5"}, {"measurement": "general herbicidal activity", "setting": "test plants", "value": "very good general herbicidal activity"}, {"measurement": "selectivity", "setting": "soybeans", "value": "selective for soybeans"}]}, {"smiles": "CSc1nnc(C(C)(C)C)c(=O)n1N=Cc1ccccc1", "note": "[Compound 236]", "values": [{"measurement": "fungicidal activity", "setting": "Alternaria", "value": "exhibits fungicidal activity, particularly against Alternaria"}, {"measurement": "killing of nematodes", "setting": "nematoeds", "value": "kills nematoeds"}, {"measurement": "selectivity", "setting": "cotton and tomatoes", "value": "selective as to cotton and tomatoes"}, {"measurement": "effectiveness in growing crops", "setting": "[7]", "value": "effective in growing corn, potatoes, millet and peanuts"}, {"measurement": "general properties", "setting": "plants and weeds", "value": "same general properties"}, {"measurement": "LD50", "setting": "Oral toxicity in rats", "value": 1000, "unit": "mg/kg"}, {"measurement": "toxicity", "setting": "rats", "value": "quite low"}]}]}
